Experimental data reported in patent US20080255053A1, “METHOD FOR THE THERAPEUTIC MANAGEMENT OF ENDOMETRIOSIS” (Aeterna Zentaris GmbH, priority 1999, published 2008).
Non-standard residues stand in square brackets, D forms with d. Residues, ends and D or L forms follow the SMILES beside them. dPhe(4-Cl) = N[C@H](Cc1ccc(Cl)cc1)C(=O)O; d2Nal = N[C@H](Cc1ccc2ccccc2c1)C(=O)O; dCit = NC(=O)NCCC[C@@H](N)C(=O)O; d3Pal = N[C@H](Cc1cccnc1)C(=O)O

Tested on: patients with confirmed endometriosis
Assay: Weekly 3 mg Cetrorelix for 8 weeks in patients with confirmed endometriosis
Format: in vivo, human
Conditions: 3 mg weekly for 8 weeks

Q: How did the “hot flushes or other hormonal (estradiol) withdrawal symptoms” value turn out when CC(=O)N[C@H](Cc1ccc2ccccc2c1)C(=O)N[C@H](Cc1ccc(Cl)cc1)C(=O)N[C@H](Cc1cccnc1)C(=O)N[C@@H](CO)C(=O)N[C@@H](Cc1ccc(O)cc1)C(=O)N[C@H](CCCNC(N)=O)C(=O)N[C@@H](CC(C)C)C(=O)N[C@@H](CCCNC(=N)N)C(=O)N1CCC[C@H]1C(=O)N[C@H](C)C(N)=O [Cetrorelix acetate] (Ac-[d2Nal][dPhe(4-Cl)][d3Pal]SY[dCit]LRP[dA]-NH2) was run?
A: avoiding any hot flushes or other withdrawal symptoms

Q: And the “proliferation of the endometrium at the end of treatment (histological biopsies)” value?
A: no proliferation of the endometrium

Q: What about the “hot flushes or other hormonal (estradiol) withdrawal symptoms” value (listed as Cetrorelix) of the same compound?
A: without any signs of estradiol withdrawal symptoms

Q: And the “proliferation of the endometrium at the end of treatment (histological biopsies)” value (listed as Cetrorelix)?
A: without proliferation of the endometrium
